Calls of active or inactive are those of the source. No rule for the calls is given here.
Tested on: CCRIS mutagenicity, Ames/micronucleus/aberration tests
Assay: CCRIS mutagenicity studies
[1] = Test System: AMES SALMONELLA TYPHIMURIUM, Strain/Indicator: TA98, Metabolic Activation: NONE, Method: STANDARD PLATE
[2] = Test System: AMES SALMONELLA TYPHIMURIUM, Strain/Indicator: TA100, Metabolic Activation: RAT, LIVER, S-9, AROCLOR 1254, Method: STANDARD PLATE
[3] = Test System: AMES SALMONELLA TYPHIMURIUM, Strain/Indicator: TA1535, Metabolic Activation: NONE, Method: STANDARD PLATE
[4] = Test System: AMES SALMONELLA TYPHIMURIUM, Strain/Indicator: TA1535, Metabolic Activation: RAT, LIVER, S-9, AROCLOR 1254, Method: STANDARD PLATE
[5] = Test System: AMES SALMONELLA TYPHIMURIUM, Strain/Indicator: TA1537, Metabolic Activation: NONE, Method: STANDARD PLATE

## FC(C(F)(F)F)C(F)(F)F
Test System: AMES SALMONELLA TYPHIMURIUM, Strain/Indicator: TA98, Metabolic Activation: NONE, Method: DESICCATOR
  mutagenic call: inactive; negative
Test System: AMES SALMONELLA TYPHIMURIUM, Strain/Indicator: TA98, Metabolic Activation: NONE, Method: VAPOR CHAMBER
  mutagenic call: inactive; negative
Test System: AMES SALMONELLA TYPHIMURIUM, Strain/Indicator: TA98, Metabolic Activation: RAT, LIVER, S-9, AROCLOR 1254, Method: DESICCATOR
  mutagenic call: inactive; negative
Test System: AMES SALMONELLA TYPHIMURIUM, Strain/Indicator: TA98, Metabolic Activation: RAT, LIVER, S-9, AROCLOR 1254, Method: VAPOR CHAMBER
  mutagenic call: inactive; negative
Test System: AMES SALMONELLA TYPHIMURIUM, Strain/Indicator: TA100, Metabolic Activation: NONE, Method: DESICCATOR
  mutagenic call: inactive; negative
Test System: AMES SALMONELLA TYPHIMURIUM, Strain/Indicator: TA100, Metabolic Activation: NONE, Method: VAPOR CHAMBER
  mutagenic call: inactive; negative
Test System: AMES SALMONELLA TYPHIMURIUM, Strain/Indicator: TA100, Metabolic Activation: RAT, LIVER, S-9, AROCLOR 1254, Method: DESICCATOR
  mutagenic call: inactive; negative
Test System: AMES SALMONELLA TYPHIMURIUM, Strain/Indicator: TA100, Metabolic Activation: RAT, LIVER, S-9, AROCLOR 1254, Method: VAPOR CHAMBER
  mutagenic call: inactive; negative
Test System: AMES SALMONELLA TYPHIMURIUM, Strain/Indicator: TA1535, Metabolic Activation: NONE, Method: DESICCATOR
  mutagenic call: inactive; negative
Test System: AMES SALMONELLA TYPHIMURIUM, Strain/Indicator: TA1535, Metabolic Activation: NONE, Method: VAPOR CHAMBER
  mutagenic call: inactive; negative
Test System: AMES SALMONELLA TYPHIMURIUM, Strain/Indicator: TA1535, Metabolic Activation: RAT, LIVER, S-9, AROCLOR 1254, Method: DESICCATOR
  mutagenic call: inactive; negative
Test System: AMES SALMONELLA TYPHIMURIUM, Strain/Indicator: TA1535, Metabolic Activation: RAT, LIVER, S-9, AROCLOR 1254, Method: VAPOR CHAMBER
  mutagenic call: inactive; negative
Test System: AMES SALMONELLA TYPHIMURIUM, Strain/Indicator: TA1537, Metabolic Activation: NONE, Method: DESICCATOR
  mutagenic call: inactive; negative
Test System: AMES SALMONELLA TYPHIMURIUM, Strain/Indicator: TA1537, Metabolic Activation: NONE, Method: VAPOR CHAMBER
  mutagenic call: inactive; negative
Test System: AMES SALMONELLA TYPHIMURIUM, Strain/Indicator: TA1537, Metabolic Activation: RAT, LIVER, S-9, AROCLOR 1254, Method: DESICCATOR
  mutagenic call: inactive; negative
Test System: AMES SALMONELLA TYPHIMURIUM, Strain/Indicator: TA1537, Metabolic Activation: RAT, LIVER, S-9, AROCLOR 1254, Method: VAPOR CHAMBER
  mutagenic call: inactive; negative
Test System: AMES SALMONELLA TYPHIMURIUM, Strain/Indicator: TA1538, Metabolic Activation: NONE, Method: DESICCATOR
  mutagenic call: inactive; negative
Test System: AMES SALMONELLA TYPHIMURIUM, Strain/Indicator: TA1538, Metabolic Activation: NONE, Method: VAPOR CHAMBER
  mutagenic call: inactive; negative
Test System: AMES SALMONELLA TYPHIMURIUM, Strain/Indicator: TA1538, Metabolic Activation: RAT, LIVER, S-9, AROCLOR 1254, Method: DESICCATOR
  mutagenic call: inactive; negative
Test System: AMES SALMONELLA TYPHIMURIUM, Strain/Indicator: TA1538, Metabolic Activation: RAT, LIVER, S-9, AROCLOR 1254, Method: VAPOR CHAMBER
  mutagenic call: inactive; negative
Test System: MOUSE LYMPHOMA, Strain/Indicator: L5178Y (TK+/TK-), Metabolic Activation: NONE, Method: SUSPENSION/PLATE
  mutagenic call: inactive; negative
Test System: MOUSE LYMPHOMA, Strain/Indicator: L5178Y (TK+/TK-), Metabolic Activation: RAT, LIVER, S-9, AROCLOR 1254, Method: SUSPENSION/PLATE
  mutagenic call: inactive; negative

## C=CCC1=C(C)C(OC(=O)[C@@H]2[C@@H](C=C(C)C)C2(C)C)CC1=O (some centres undefined)
Test System: AMES SALMONELLA TYPHIMURIUM, Strain/Indicator: TA97, Metabolic Activation: NONE, Method: STANDARD PLATE
  mutagenic call: active; positive
Test System: AMES SALMONELLA TYPHIMURIUM, Strain/Indicator: TA97, Metabolic Activation: RAT, LIVER, S-9, PHENOBARBITONE, Method: STANDARD PLATE
  mutagenic call: active; positive
Test System: AMES SALMONELLA TYPHIMURIUM, Strain/Indicator: TA98
  mutagenic call: active; positive
Test System: AMES SALMONELLA TYPHIMURIUM, Strain/Indicator: TA98, Metabolic Activation: NONE
  mutagenic call: inactive; negative
Test System: AMES SALMONELLA TYPHIMURIUM, Strain/Indicator: TA98, Metabolic Activation: NONE, Method: MICROSUSPENSION
  mutagenic call: inactive; negative
[1]
  mutagenic call: inactive; negative
Test System: AMES SALMONELLA TYPHIMURIUM, Strain/Indicator: TA98, Metabolic Activation: RAT, LIVER, S-9, AROCLOR 1254, Method: STANDARD PLATE
  mutagenic call: inactive; negative
Test System: AMES SALMONELLA TYPHIMURIUM, Strain/Indicator: TA98, Metabolic Activation: RAT, LIVER, S-9, PHENOBARBITONE, Method: STANDARD PLATE
  mutagenic call: inactive; negative
Test System: AMES SALMONELLA TYPHIMURIUM, Strain/Indicator: TA98, Metabolic Activation: S-9, Method: MICROSUSPENSION
  mutagenic call: inactive; negative
Test System: AMES SALMONELLA TYPHIMURIUM, Strain/Indicator: TA100
  mutagenic call: active; positive
Test System: AMES SALMONELLA TYPHIMURIUM, Strain/Indicator: TA100, Metabolic Activation: NONE
  mutagenic call: active; positive
Test System: AMES SALMONELLA TYPHIMURIUM, Strain/Indicator: TA100, Metabolic Activation: NONE, Method: MICROSUSPENSION
  mutagenic call: inactive; negative
[2]
  mutagenic call: active; positive
Test System: AMES SALMONELLA TYPHIMURIUM, Strain/Indicator: TA100, Metabolic Activation: RAT, LIVER, S-9, PHENOBARBITONE, Method: STANDARD PLATE
  mutagenic call: active; positive
Test System: AMES SALMONELLA TYPHIMURIUM, Strain/Indicator: TA100, Metabolic Activation: S-9, Method: MICROSUSPENSION
  mutagenic call: inactive; negative
Test System: AMES SALMONELLA TYPHIMURIUM, Strain/Indicator: TA100, Metabolic Activation: S-9 MIX, Method: STANDARD PLATE
  mutagenic call: active; positive
Test System: AMES SALMONELLA TYPHIMURIUM, Strain/Indicator: TA104, Metabolic Activation: NONE, Method: STANDARD PLATE
  mutagenic call: inactive; negative
Test System: AMES SALMONELLA TYPHIMURIUM, Strain/Indicator: TA104, Metabolic Activation: RAT, LIVER, S-9, PHENOBARBITONE, Method: STANDARD PLATE
  mutagenic call: active; positive
[3]
  mutagenic call: inactive; negative
[4]
  mutagenic call: inactive; negative
[5]
  mutagenic call: inactive; negative
Test System: AMES SALMONELLA TYPHIMURIUM, Strain/Indicator: TA1537, Metabolic Activation: RAT, LIVER, S-9, AROCLOR 1254, Method: STANDARD PLATE
  mutagenic call: inactive; negative
Test System: E. COLI, Strain/Indicator: WP2, Metabolic Activation: NONE, Method: STANDARD PLATE
  mutagenic call: inactive; negative
Test System: E. COLI, Strain/Indicator: WP2, Metabolic Activation: RAT, LIVER, S-9, AROCLOR 1254, Method: STANDARD PLATE
  mutagenic call: inactive; negative

## O=CNc1nc(-c2ccc([N+](=O)[O-])cc2)cs1
Test System: AMES SALMONELLA TYPHIMURIUM, Strain/Indicator: TA98, Metabolic Activation: RAT, LIVER, S-9, KC500 OR PHENOBARBITAL, Method: LIQUID SUSPENSION
  mutagenic call: active; positive
Test System: AMES SALMONELLA TYPHIMURIUM, Strain/Indicator: TA100, Metabolic Activation: RAT, LIVER, S-9, KC500 OR PHENOBARBITAL, Method: LIQUID SUSPENSION
  mutagenic call: active; positive

## COC(=O)c1oc(NOC(C)=O)c(-c2ccccc2)c1-c1ccccc1
Test System: AMES SALMONELLA TYPHIMURIUM, Strain/Indicator: TA98, Metabolic Activation: NONE, Method: PREINCUBATION
  mutagenic call: inactive; negative
Test System: AMES SALMONELLA TYPHIMURIUM, Strain/Indicator: TA98, Metabolic Activation: RAT, LIVER, S-9, AROCLOR, Method: PREINCUBATION
  mutagenic call: inactive; negative
Test System: AMES SALMONELLA TYPHIMURIUM, Strain/Indicator: TA100, Metabolic Activation: NONE, Method: PREINCUBATION
  mutagenic call: inactive; negative
Test System: AMES SALMONELLA TYPHIMURIUM, Strain/Indicator: TA100, Metabolic Activation: RAT, LIVER, S-9, AROCLOR, Method: PREINCUBATION
  mutagenic call: inactive; negative

## CCc1ccc2c(c1[N+](=O)[O-])C(=O)c1ccccc1C2=O
[1]
  mutagenic call: inactive; negative
Test System: AMES SALMONELLA TYPHIMURIUM, Strain/Indicator: TA100, Metabolic Activation: NONE, Method: STANDARD PLATE
  mutagenic call: inactive; negative
[2]
  mutagenic call: active; positive
[3]
  mutagenic call: inactive; negative
[4]
  mutagenic call: inactive; negative
[5]
  mutagenic call: inactive; negative
Test System: AMES SALMONELLA TYPHIMURIUM, Strain/Indicator: TA1538, Metabolic Activation: NONE, Method: STANDARD PLATE
  mutagenic call: inactive; negative

— PubChem BioAssay AID1259407 (Chemical Carcinogenesis Research Information System (CCRIS), 2018)
